Where two headings read alike, the source gives them in different places. Some results are limits rather than exact numbers.

Common to all, as to experiment: microbe, parasite or virus in culture
One assay relates to E. coli HB4 ΔompC/F. The assay is classed as cell-based, Escherichia coli. The conditions noted are these: Escherichia coli. The procedure, abridged: (§1)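 Against isogenic E. coli expressing OXA-48, or OXA-48 with CTX-M-14, in TG1 or the low-permeability HB4 background, MICs were measured in triplicate. Inhibitors at 4 mg/L were given with ertapenem or ceftazidime. EUCAST 13.0 criteria were applied.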

For assay [1], the system named is E. coli HB4 ΔompC/F (CTX-M-14). The assay is classed as cell-based, Escherichia coli. The note with it: Escherichia coli.
The test system of assay [2] is E. coli HB4 ΔompC/F (CTX-M-14 + OXA-48). Type of assay: cell-based, Escherichia coli. The note with it: for MIC: Escherichia coli. The procedure, abridged: as §1
Assay [3] has as its system E. coli HB4 ΔompC/F (OXA-48). Type of assay: cell-based, Escherichia coli. The conditions noted are these: Escherichia coli. Summed up: as §1
In assay [4] the test system is K. pneumoniae strain 413 (MLST 147, ESBL). The assay is classed as cell-based. The conditions noted are these: Klebsiella pneumoniae. The procedure, abridged:
(§2)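 MICs in triplicate against OXA-48-positive Enterobacterales clinical isolates, interpreted by EUCAST 13.0 breakpoints. Inhibitors at 4 mg/L combined with ertapenem or ceftazidime as reporter substrates; MICs of each compound alone also determined.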

Assay [5] relates to K. pneumoniae strain 497 (MLST 11, No ESBL). Type of assay: cell-based. The conditions noted are these: Klebsiella pneumoniae; K. pneumoniae 497; β-lactamase inhibitor alone; read-out: MIC.
Assay [6] relates to K. pneumoniae strain 19 (MLST 11, ESBL). The assay is classed as cell-based. The note with it: Klebsiella pneumoniae. Summed up:
as §2

Assay [7] concerns E. coli strain 103 (MLST 10, ESBL). The assay is classed as cell-based. The conditions noted are these: Escherichia coli. Summed up:
as §2

The subject of assay [8] is K. pneumoniae strain 71 (MLST 15, No ESBL). Type of assay: cell-based. The note with it: Klebsiella pneumoniae; K. pneumoniae 71; β-lactamase inhibitor alone; read-out: MIC. The procedure, abridged:
as §2

Assay [9] has as its system K. pneumoniae strain 237 (MLST 147, No ESBL). Type of assay: cell-based. The conditions noted are these: Klebsiella pneumoniae; K. pneumoniae 237; β-lactamase inhibitor alone; read-out: MIC. The procedure, abridged:
as §2

The test system of assay [10] is E. coli strain 264 (MLST 131, No ESBL). Type of assay: cell-based. The conditions noted are these: Escherichia coli; E. coli 264; β-lactamase inhibitor alone; read-out: MIC. Summed up: as §2
The subject of assay [11] is K. pneumoniae strain 238 (MLST 15, ESBL). Type of assay: cell-based. The note with it: Klebsiella pneumoniae. The procedure, abridged:
as §2

Assay [12] deals with K. pneumoniae strain 23 (MLST 392, ESBL). Type of assay: cell-based. The note with it: Klebsiella pneumoniae. The procedure, abridged: as §2
The test system of assay [13] is E. cloacae strain 272 (MLST 78, ESBL). The assay is classed as cell-based. The note with it: Enterobacter cloacae. The procedure, abridged: as §2
Assay [14] has as its system K. pneumoniae strain 125 (MLST 307, ESBL). The assay is classed as cell-based. The note with it: Klebsiella pneumoniae. Summed up: as §2
The test system of assay [15] is K. pneumoniae strain 170 (MLST 307, No ESBL). Type of assay: cell-based. The note with it: Klebsiella pneumoniae; K. pneumoniae 170; β-lactamase inhibitor alone; read-out: MIC. The procedure, abridged: as §2
Assay [16] concerns E. coli strain 177 (MLST 131, ESBL). The assay is classed as cell-based. The note with it: Escherichia coli. The procedure, abridged: as §2
Assay [17] has as its system E. cloacae strain 281 (MLST 78, No ESBL). Type of assay: cell-based. The note with it: Enterobacter cloacae. Summed up: as §2
Assay [18] relates to E. cloacae strain 231 (MLST 171, No ESBL). The assay is classed as cell-based. The note with it: Enterobacter cloacae. The procedure, abridged:
as §2

The subject of assay [19] is K. pneumoniae strain 194 (MLST 392, No ESBL). The assay is classed as cell-based. The note with it: Klebsiella pneumoniae; K. pneumoniae 194; β-lactamase inhibitor alone; read-out: MIC. Summed up: as §2
Assay [20] concerns E. cloacae strain 235 (MLST 171, ESBL). The assay is classed as cell-based. The note with it: Enterobacter cloacae. Summed up:
as §2

Assay [21] relates to E. coli strain 224 (MLST 127, No ESBL). Type of assay: cell-based. The conditions noted are these: Escherichia coli; E. coli 224; β-lactamase inhibitor alone; read-out: MIC. The procedure, abridged: as §2

On to `O=C(O)C[C@@H]1CC[C@H](NC(=O)Cc2cccs2)B(O)O1` [Vaborbactam, vaborbactam], for which the MIC (in the assay with E. coli HB4 ΔompC/F; in assay [1]; in assay [2]; in assay [3]; in [4]; in assay [5]) was no less than 128 µg/mL each time. Also, the MIC in [6], in assay [7], in [8], in assay [9], in [10] and in assay [11] was no less than 128 µg/mL each time. In addition, the MIC was no less than 128 µg/mL in assay [12]; no less than 128 µg/mL in assay [13]; no less than 128 µg/mL in assay [14]; no less than 128 µg/mL in [15]; no less than 128 µg/mL in assay [16]; no less than 128 µg/mL in assay [17] (E. cloacae 281, β-lactamase inhibitor alone, read-out: MIC). Besides, the MIC in assay [18] (E. cloacae 231, β-lactamase inhibitor alone, read-out: MIC) was no less than 128 µg/mL; in assay [19], no less than 128 µg/mL; in assay [20], no less than 128 µg/mL; in assay [21], no less than 128 µg/mL.

For the compound `NCCN[C@H]1CC[C@H](CC(=O)N[C@H]2Cc3cccc(C(=O)O)c3OB2O)CC1` [Taniborbactam, taniborbactam], the MIC (against E. coli HB4 ΔompC/F; in [1]; in assay [2]; in assay [3]; in assay [4]; in [5]) was no less than 128 µg/mL throughout. Also, the MIC in assay [6], in [7], in assay [8], in assay [9], in [10] and in assay [11] was no less than 128 µg/mL each time. Moreover, the MIC in [12], in assay [13], in assay [14], in [15], in assay [16] and in [17] was no less than 128 µg/mL each time. Besides, the MIC in assay [18], in assay [19], in assay [20] and in [21] was no less than 128 µg/mL throughout. In addition, the “decrease of ertapenem MIC with BLI” value in [2] (E. coli HB4 coproducing CTX-M-14 and OXA-48, BLI 4 mg/L) is given as 8 fold.
